The values below come from PubChem BioAssay AID1645863 (Buhrlage Lab, Dana-Farber Cancer Institute and Novartis …, 2021).

Activity calls are given as the source filed them. How the calls were made is not given here. Some results are limits rather than exact numbers.

Sequence of Ubiquitin carboxyl-terminal hydrolase 10 (Homo sapiens) (Q14694 whole entry, looked up): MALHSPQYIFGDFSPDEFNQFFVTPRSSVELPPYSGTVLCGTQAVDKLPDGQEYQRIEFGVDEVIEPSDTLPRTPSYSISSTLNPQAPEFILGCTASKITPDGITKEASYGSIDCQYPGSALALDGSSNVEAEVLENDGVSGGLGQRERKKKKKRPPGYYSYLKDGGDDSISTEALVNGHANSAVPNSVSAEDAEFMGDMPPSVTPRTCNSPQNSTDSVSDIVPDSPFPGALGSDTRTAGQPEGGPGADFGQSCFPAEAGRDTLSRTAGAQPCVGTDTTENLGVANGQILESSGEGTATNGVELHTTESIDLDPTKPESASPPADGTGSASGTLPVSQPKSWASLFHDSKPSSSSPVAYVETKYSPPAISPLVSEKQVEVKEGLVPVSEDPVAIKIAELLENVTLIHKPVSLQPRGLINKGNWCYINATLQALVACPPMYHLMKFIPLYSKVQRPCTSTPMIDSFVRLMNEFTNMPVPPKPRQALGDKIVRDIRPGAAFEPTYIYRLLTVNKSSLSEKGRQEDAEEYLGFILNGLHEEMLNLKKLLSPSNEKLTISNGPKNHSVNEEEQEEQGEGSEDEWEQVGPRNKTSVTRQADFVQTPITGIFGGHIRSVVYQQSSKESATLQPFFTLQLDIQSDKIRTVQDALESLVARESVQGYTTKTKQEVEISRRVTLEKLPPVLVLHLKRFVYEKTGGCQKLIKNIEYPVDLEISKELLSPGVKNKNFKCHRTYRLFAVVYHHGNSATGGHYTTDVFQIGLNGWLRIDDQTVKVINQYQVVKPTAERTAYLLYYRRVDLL

This assay concerns the target Ubiquitin carboxyl-terminal hydrolase 10 (Homo sapiens) (UniProt Q14694). Put plainly: primary hit verification, biochemical, ubiquitin-specific protease 10 deubiquitylase inhibitors, concentration-effect titration (AID 1645863).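 Further: potency values describe inhibition of USP10 cleavage of a fluorogenic ubiquitin substrate.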 As to conditions: USP10 deubiquitinase enzymatic assay.
Regarding `CC[C@H](C)[C@H](NC(=O)[C@H]([C@@H](C)CC)N(C)C(C)=O)C(=O)N[C@H](C(=O)N[C@@H](CC(C)C)C(=O)C1(C)CO1)[C@@H](C)O` (some centres not stated), the IC50 (in general, the point on the concentration scale where inhibition reaches its midpoint) was > 40 µM (inactive).

As to `O=C(NCCc1nc2ccccc2n1Cc1ccccc1F)c1ccc(Cl)cc1`, the half-inhibitory concentration (IC50) was 24.4 µM.

For the compound `CC(CCc1ccccc1)NC(=O)Cn1c(=O)c2cccn2c2ccccc21` (configuration not stated), the IC50 was > 40 µM (inactive).

`Cc1ccc(Cl)cc1NC(=O)c1cc(-c2ccccn2)n[nH]1`: the IC50 was > 40 µM (inactive).

For `CCN(c1ccc(NC(=O)COC(=O)c2cccnc2Nc2cccc(C(F)(F)F)c2)cc1)C(C)C`, the IC50 was > 40 µM (inactive).

Take `Cc1cccc(OCCn2c(CCNC(=O)C3CCCCC3)nc3ccccc32)c1`: the concentration for half-maximal inhibition (IC50) was 16.3 µM.

In the case of `CCc1nc(SCC(=O)Nc2cc(Cl)ccc2C)c2oc3ccccc3c2n1`, the IC50 was 1.14 µM.

As for `CC(C)=CCC[C@H](C(=O)O)[C@@H]1CC[C@]2(C)C3=C(CC[C@@]12C)[C@@]1(C)CCC(=O)C(C)(C)C1CC3` (some centres not stated), the IC50 was 23.8 µM.

Take `COc1ccc(C)cc1NC(=O)Nc1nnc(CC(=O)NCc2ccccc2)s1`: the IC50 is > 40 µM (inactive).

Regarding `COc1cc(O)c2c(O)c3c(cc2c1)C[C@@]1(O)CC(=O)C(C(N)=O)=C(O)[C@@]1(O)C3=O`, the 50% inhibitory concentration (IC50) was 7.47 µM.

With `Cc1c(NC(=O)/C=C/c2cccc(Cl)c2Cl)cccc1-n1cnnn1`, the IC50 is > 40 µM (inactive).

`O=C(CCCCCn1c(=O)c2sccc2n(CC(=O)c2ccc(Cl)c(Cl)c2)c1=O)NCc1ccc2c(c1)OCO2`: the half-maximal inhibitory concentration (IC50) was 10.6 µM.

For `O=C(CCCc1nnc2c(=O)n(-c3cccc(F)c3)ccn12)Nc1ccccc1`, the IC50 is > 40 µM (inactive).

For `CC(=O)O[C@@H](C/C=C(\C)C(=O)O)[C@@H](C)[C@H]1C[C@H](OC(C)=O)[C@@]2(C)C3=CC[C@H]4C(C)(C)[C@H](O)CC[C@]4(C)C3=CC[C@]12C`, the IC50 was 18 µM.

Take `COc1ccc(-c2nc3c(c(=O)c4ccccc4n3C)c(=O)n2Cc2ccco2)cc1`: the IC50 was 28.7 µM.

As for `Cc1cccc(C(=O)Nc2cccc(SC(C(=O)Nc3ccc(Cl)c(C(=O)O)c3)c3ccccc3)c2)c1` (configuration not stated), the half-maximal inhibitory concentration (IC50) is 7.42 µM.

With `O=C(Nc1cccc2ccccc12)N1CCC(c2nc3c(nnn3Cc3ccc(F)cc3)c(=O)[nH]2)CC1`, the IC50 was > 40 µM (inactive).

Take `CSc1ccc(CNC(=O)Cn2c(=O)[nH]c3c(-c4ccccc4)c[nH]c3c2=O)cc1`: the IC50 is > 40 µM (inactive).

For `CC(C)NC(=O)Cn1ccn2nc(-c3ccc(Cl)cc3)cc2c1=O`, the IC50 is > 40 µM (inactive).

Consider `COc1cc(Cl)c(NC(=O)c2cc(-c3ccccn3)n[nH]2)c(OC)c1`, for which the IC50 was > 40 µM (inactive).

For `COc1ccc(C)cc1NC(=O)CN1C(=O)C2CCCC2=Nc2ccccc21` (configuration not stated), the IC50 was > 40 µM (inactive).

As to `O=c1[nH]cccc1NS(=O)(=O)c1ccc(F)cc1`, the IC50 is > 40 µM (inactive).

For `CCc1nnc(C(=O)Nc2ccc(C(=O)NCc3ccc(OC(C)C)cc3)cc2)s1`, the IC50 was > 40 µM (inactive).

Turning to `O=c1c2cc(Br)ccc2[nH]c(=S)n1Cc1cccnc1`, the IC50 was > 40 µM (inactive).

On to `COc1ccc(-c2nc(-c3cc4cc(OC)ccc4[nH]c3=O)no2)cc1`, for which the IC50 is > 40 µM (inactive).

As for `COc1ccc(CCN2COc3c(cc(Cl)c4cccnc34)C2)cc1OC`, the IC50 was > 40 µM (inactive).

As for `O=c1[nH]c(C2CCN(S(=O)(=O)c3ccc(S(=O)(=O)NC4CCCC4)cc3)CC2)nc2c1nnn2Cc1cccc(Cl)c1`, the IC50 is 13.2 µM.

For `Cc1ccccc1NC(=O)CSC1=NC2(CCCCC2)Nc2ccccc21`, the IC50 was > 40 µM (inactive).

For `Cc1ccc(Nc2nc(NCC(=O)Nc3cc(C)ccc3C)nc(Nc3ccc(C)cc3)n2)cc1`, the 50% inhibitory concentration (IC50) is 32.8 µM.

`c1ccc(CNc2ccc(-c3ccccc3)nn2)cc1`: the IC50 was > 40 µM (inactive).

As to `COc1ccc(-c2nc(NCCCN3CCOCC3)c3ccccc3n2)cc1`, the IC50 was > 40 µM (inactive).

For `O=C1c2c(O)cccc2C2(Oc3cccc4cccc(c34)O2)C2OC12` (configuration not stated), the concentration for half-maximal inhibition (IC50) was 15.5 µM.

For the compound `COc1ccc(CNc2ccc(C(=O)OCc3ccccc3F)cc2S(=O)(=O)Nc2cccc(OC)c2)cc1`, the IC50 is > 40 µM (inactive).

Turning to `CC(C)Cc1nc2sc3c(SCC(=O)N4CCC(C)CC4)ncnc3c2c2c1COC(C)(C)C2`, the IC50 is > 40 µM (inactive).

Regarding `O=C(COc1ccc(N2CC(C(=O)NCc3ccc4c(c3)OCO4)CC2=O)cc1)Nc1ccc(F)cc1` (configuration not stated), the 50% inhibitory concentration (IC50) is 20.8 µM.

On to `CC(=O)c1ccc(NC(=O)CCc2c(C)c3c(C)nn(-c4ccccc4)c3n(C)c2=O)cc1`, for which the IC50 is > 40 µM (inactive).

`CCCN1CCN(C(=O)Cn2c(C)ccc(NC(=O)c3ccccc3)c2=O)CC1`: the IC50 is > 40 µM (inactive).

As for `CCn1cc2c(n1)c(=O)n(Cc1ccc(C)cc1)c(=O)n2CC(=O)Nc1ccc(F)cc1`, the IC50 is > 40 µM (inactive).

Consider `COc1cccc(CNc2ccc(-c3nc(-c4ccccc4)no3)nn2)c1`, for which the IC50 was > 40 µM (inactive).

For the compound `O=C(COc1ccc(N2CC(C(=O)NCc3ccccc3)CC2=O)cc1)Nc1ccc(F)cc1` (configuration not stated), the IC50 is > 40 µM (inactive).

For the compound `CC(=O)c1ccc(N2CCN(S(=O)(=O)c3cc4c(cc3C)NC(=O)CO4)CC2)cc1`, the IC50 was > 40 µM (inactive).

Consider `COc1ccc(OCCn2c(C3CC(=O)N(c4cccc(C)c4)C3)nc3ccccc32)cc1` (configuration not stated), for which the half-maximal inhibitory concentration (IC50) was 15.2 µM.

As for `CCOC(=O)c1ccc(NC(=O)Cn2c(=O)n(CC(=O)NCc3ccco3)c(=O)c3ccccc32)cc1`, the IC50 was 16.2 µM.

For `CC(=O)N1CCc2cc(S(=O)(=O)NC(Cc3ccccc3)C(=O)Nc3cccc(Cl)c3C)ccc21` (configuration not stated), the IC50 is 23.8 µM.

For the compound `COc1ccc([N+](=O)[O-])cc1NC(=O)COC(=O)c1ccc2[nH]c3c(c2c1)CCCC3`, the IC50 is 18.3 µM.

Turning to `COc1ccc(COc2ccc3c(C)c(CC(=O)N4CC[C@@]5(O)CCCC[C@H]5C4)c(=O)oc3c2)cc1`, the IC50 is > 40 µM (inactive).

As for `CC(=O)Nc1ccc(NC(=O)c2ccc3c(c2)CC(c2ccccc2)OC3=O)cc1` (configuration not stated), the half-inhibitory concentration (IC50) is 14.6 µM.

With `O=C(NC1(O)C(=O)c2ccccc2C1=O)c1cccc2c1-c1ccccc1C2=O`, the IC50 was 10.3 µM.

Consider `Cc1csc(NC(=O)c2c[nH]c3ccc(F)cc3c2=O)n1`, for which the IC50 was > 40 µM (inactive).

As to `O=c1c2ccccc2nc(/C=C/c2ccco2)n1Cc1ccccc1`, the IC50 was > 40 µM (inactive).

With `Cc1nc(C(=O)NC2(O)C(=O)c3ccccc3C2=O)cs1`, the half-inhibitory concentration (IC50) was 6.82 µM.

Consider `Cc1ccc(CNC(=O)Cn2c(=O)n(CCCC(=O)NCc3ccc(F)cc3)c(=O)c3ccccc32)cc1`, for which the concentration for half-maximal inhibition (IC50) was 17.3 µM.

As to `O=C(c1cscn1)N1CCC2(CC1)CC1(CO2)Nc2ccccc2-n2cccc21` (configuration not stated), the IC50 was > 40 µM (inactive).

As for `Cc1ccc(N2CC(C(=O)Nc3cccc(-c4noc(C)n4)c3)CC2=O)cc1` (configuration not stated), the IC50 was > 40 µM (inactive).

As to `Cc1c(Cl)cccc1NC(=O)Cn1cc(C(=O)C2CC2)c2ccccc21`, the IC50 was > 40 µM (inactive).

As for `COc1cc(NC(=O)Cn2c(=O)n(-c3ccc(CC(=O)NC4CCCC4)cc3)c(=O)c3ccccc32)cc(OC)c1`, the IC50 is > 40 µM (inactive).

On to `Cc1nc(SCC(=O)NC(C)c2ccccc2)c2oc3ccccc3c2n1` (configuration not stated), for which the IC50 is > 40 µM (inactive).

In the case of `O=C(CSc1oc(-c2ccc(F)cc2)nc1S(=O)(=O)c1ccc(F)cc1)Nc1ccc(F)cc1`, the 50% inhibitory concentration (IC50) was 34.7 µM.

As to `O=C(O)C1C(C(=O)Nc2ccccc2)C2(c3ccccc3)C(=O)C1(c1ccccc1)C(c1ccccc1)=C2c1ccccc1` (configuration not stated), the half-maximal inhibitory concentration (IC50) was 4.25 µM.

On to `O=C(COC(=O)c1ccc(NS(=O)(=O)c2ccc(F)c(F)c2)cc1)Nc1ccc(OCc2ccccc2)cc1`, for which the IC50 was 20.9 µM.

`COc1cccc(NC(=O)c2oc3ccccc3c2NC(=O)COc2cccc(OC)c2)c1`: the IC50 was > 40 µM (inactive).

For `Cc1cc(C)cc(NC(=O)C2CC(=O)Nc3nc4ccccc4n32)c1` (configuration not stated), the IC50 was > 40 µM (inactive).

For the compound `Cc1ccc(C2SCC(=O)Nc3c2c(=O)[nH]n3C2CCCCC2)cc1` (configuration not stated), the half-inhibitory concentration (IC50) is 28.8 µM.

As for `Cc1nc(N2CCCC2)ncc1-c1cc(=O)[nH]c(Nc2ccc(Cl)cc2Cl)n1`, the IC50 was 12.2 µM.

Regarding `O=C(c1ccc2cc[nH]c2c1)N1CCC(Nc2cccnc2)C1` (configuration not stated), the IC50 was > 40 µM (inactive).

On to `O=C(CCCn1c(=O)c2sccc2n(CC(=O)NCCC2=CCCCC2)c1=O)NCc1ccc2c(c1)OCO2`, for which the IC50 was 13.8 µM.

`O=C(CSc1nnc2ccc3ccccc3n12)c1ccc(Cl)cc1`: the IC50 is > 40 µM (inactive).

Consider `COc1ccccc1NC(=O)c1nc(-c2cn(-c3cccc(F)c3)nn2)no1`, for which the IC50 was 21.1 µM.

Regarding `COc1cc(-c2ccccc2)c(O)c(O)c1-c1ccccc1`, the IC50 was 14 µM.

For the compound `Cc1cccc(N2CCN(C(=O)c3nc4cccnc4n(C)c3=O)CC2)c1C`, the IC50 was > 40 µM (inactive).

For the compound `COc1ccccc1NC(=O)CSC1=NC2(CCCCC2)Nc2ccccc21`, the IC50 was > 40 µM (inactive).

Turning to `Cc1ccc2c(c1)N=C(c1ccc([N+](=O)[O-])cc1)CO2`, the IC50 is > 40 µM (inactive).

Turning to `Cc1nc(-c2noc(-c3cccc(F)c3)n2)cn1CC(=O)Nc1ccccc1`, the concentration for half-maximal inhibition (IC50) is 15.8 µM.

On to `CCn1cc2c(n1)c(=O)n(Cc1ccccc1)c(=O)n2CC(=O)Nc1ccc(OC)cc1`, for which the IC50 is 35.9 µM.

`Cc1c(C(=O)NCc2cccc(Br)c2)oc2c1-c1[nH]ncc1CC2`: the IC50 is > 40 µM (inactive).

In the case of `Cn1cc(NC(=O)Nc2cccc3ccccc23)c2ccccc21`, the IC50 is > 40 µM (inactive).

Regarding `Cc1ccc(NC(=O)CSc2nnc(-c3n[nH]c4c3CCC4)n2N)cc1C`, the IC50 is 26 µM.

On to `N#Cc1cc(C(=O)c2cc(Cl)ccc2O)cn(-c2ccccn2)c1=O`, for which the IC50 is > 40 µM (inactive).

For the compound `Fc1cccc(Nc2nc(-c3ccccn3)nc3ccccc23)c1`, the IC50 is > 40 µM (inactive).

For the compound `O=C(Nc1ccccc1C(=O)NC1CCSC1)c1ccc([N+](=O)[O-])cc1` (configuration not stated), the IC50 was > 40 µM (inactive).

Turning to `CN1c2ccccc2C(=O)NC12CCN(C(=O)NCc1ccccc1)CC2`, the IC50 is > 40 µM (inactive).

`Cc1ccccc1-c1nc(-c2cn(CC(=O)Nc3ccccc3)cn2)no1`: the IC50 is > 40 µM (inactive).
